According to patent publication US10086077B2, “Activated macrophage targetable drug carrier for treatment of atherosclerosis and methods of preparing the same” (Korea University Research and Business Foundation, priority 2016, dated 2018):

Key:
ApoE−/− mice [1] = test: Histopathology of carotid atherosclerotic plaque: H&E, MAC3 and CD 206 staining; format: in vivo; settings: after four weeks (FIG. 9)
Procedure: Further, the effect of treating atherosclerosis of the drug carrier encapsulated with the lobeglitazone was evaluated by histopathologically analyzing the size of the atherosclerotic plaque reflecting the inflammation degree of the atherosclerotic plaque, distribution of the macrophages, and expression of mannose receptors in the macrophage. The atherosclerotic plaque of the carotid extracted from the arteriosclerosis model mouse was stained by H&E staining, MAC3 staining (macrophage staining), and CD 206 staining (macrophage mannose receptor staining).
FIG. 9 is a photograph illustrating sizes of atherosclerotic plaques by using H&E staining, MAC3 staining, and CD 206 staining in the group administered with the drug carrier according to an example embodiment, the group administered orally with lobeglitazone, and the group administered with no drug. FIG. 9 is a photograph illustrating an atherosclerotic plaque in the carotid extracted from the mouse by CD 206 staining (macrophage mannose receptor staining), MAC3 staining (macrophage staining), and H&E staining, before administrating the drug and after administrating the drug for four weeks, respectively, in a group (MMR-lobe) administrated with a glycol chitosan drug carrier encapsulated with lobeglitazone, a group (PO-Lobe) orally administrated with lobeglitazone, and a group (Control) administered with no drug, respectively.

ApoE−/− mice [2] = test: In vivo imaging of carotid atherosclerotic plaque, general and in-vivo fluorescence microscope; settings: 14 mg/kg/week for four weeks, before vs after
Text: In order to evaluate a possibility of reducing inflammation and a size of the atherosclerotic plaque in vivo of the drug carrier encapsulated with the lobeglitazone, the drug carrier encapsulated with the lobeglitazone was administrated in mice (ApoE−/− mice) causing the atherosclerosis at a carotid branch.
More particularly, the ApoE −/− mice with the atherosclerosis are divided into three groups, and then in the first group, a drug carrier encapsulated with a mannose receptor-specific lobeglitazone was administrated (14 mg/kg/week), in the second group, the same quantity of lobeglitazone was orally administrated (14 mg/kg/week), and in the third group, a treating drug was not administrated. After the drug was administrated for four weeks, the same carotid branch portion was peeled and the size and the inflammation degree of the atherosclerotic plaque before and after treatment were observed and compared by a general microscope and an in-vivo fluorescence microscope.
Particularly, the effect of treating atherosclerosis was evaluated by comparing and analyzing an atherosclerotic size and an inflammation degree before administrating the drug and after administrating the drug for four weeks by administrating a glycol chitosan-based drug carrier (attached with a fluorescent material) capable of imaging an atherosclerotic plaque selectively bound to the mannose receptor over-expressed in the macrophage to an atherosclerotic model mouse and then peeling the carotid branch portion to image the carotid branch portion by an in-vivo fluorescence microscope.
In order to objectively quantify the inflammation degree expressed in the atherosclerotic plaque, a signal of autofluorescence or more of the atherosclerotic plaque measured in the Experimental Example 4 was extracted to quantify the range of signal expression and the degree of signal intensity.

With COc1ccc(Oc2cc(N(C)CCOc3ccc(CC4SC(=O)NC4=O)cc3)ncn2)cc1 (stereo not drawn) [lobeglitazone] the “CD 206 (macrophage mannose receptor staining)” value (ApoE−/− mice [1]; CD 206 staining) was “decreased”, the “size of the atherosclerotic plaque” value (ApoE−/− mice [1]; H&E staining) was “decreased” and the “MAC3 (macrophage staining)” value (ApoE−/− mice [1]; MAC3 staining) was “decreased”. For the same compound, the “inflammation degree of the atherosclerosis” value (ApoE−/− mice [2]; images (FIGS. 5A-5C)) was “not largely changed”, the “size of the atherosclerosis” value (ApoE−/− mice [2]; images (FIGS. 5A-5C)) was “not largely changed” and the “fluorescence intensity expressed in the atherosclerotic plaque” value (ApoE−/− mice [2]; quantified (FIG. 6)) was “no difference”.
